Laboratory results: publication PMC10066365, “Nemacol is a small molecule inhibitor of C. elegans vesicular acetylcholine transporter with anthelmintic potential” (Nature Communications, 2023)
Like-named read-outs stand apart in the source and are kept apart here.

What was measured:
C. elegans = C. elegans motor phenotype scoring on solid media (Punc/jerky-unc, coiled, paralyzed), wild-type young adults; assay type: in vivo, Caenorhabditis elegans; conditions: for any phene (mean % fraction of young adults exhibiting any phenotype: coiled, jerky-Unc or paralyzed): one hour, mean of three biological replicates; for EC50: Caenorhabditis elegans, read-out: C. elegans - motor disruption EC50
Pristionchus pacificus = Pristionchus pacificus motor disruption dose-response on solid media, 1 h; conditions: for mean % any phene (coiled, jerky-Unc or paralyzed): Pristionchus pacificus young adults, mean of three biological replicates; for EC50: Pristionchus pacificus, 1 h, read-out: P. pacificus motor disruption EC50
[1] = system: Dirofilaria immitis microfilariae; test: Dirofilaria immitis microfilariae immobility assay (DiroImager, 72 h); conditions: for % effect (motility), DIROIM MF: Dirofilaria immitis microfilariae
Procedure, shortened: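 Motility read after 72 h drug exposure with an image-based high-throughput plate imager, 1% DMSO medium serving as negative control. Missouri-isolate microfilariae, roughly 250 per well, freshly purified and cultured in supplemented RPMI 1640.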

[2] = system: Dirofilaria immitis L3/L4; test: Dirofilaria immitis L3/L4 motility assay (DiroImager, 72 h); conditions: Dirofilaria immitis L4
[3] = 3.75uM, third c14 line of each analog
[4] = 15uM, second c14 line of each analog
[5] = 60uM, first c14 line of each analog
[6] = conc 3.75, observed at one hour
[7] = conc 3.75, count of 20 animals per trial, one hour
[8] = any motor phenotype after 1 h on solid media, ± 95% CI

SMILES	any phene (mean % fraction of young adults exhibiting any phenotype: coiled, jerky-Unc or paralyzed) (C. elegans; [3])	any phene (mean % fraction of young adults exhibiting any phenotype: coiled, jerky-Unc or paralyzed) (C. elegans; [4])	any phene (mean % fraction of young adults exhibiting any phenotype: coiled, jerky-Unc or paralyzed) (C. elegans; [5])	mean % any phene (coiled, jerky-Unc or paralyzed) (Pristionchus pacificus; [6])	mean % any phene (coiled, jerky-Unc or paralyzed) (Pristionchus pacificus; conc 15, observed at one hour)	mean % any phene (coiled, jerky-Unc or paralyzed) (Pristionchus pacificus; conc 60, observed at one hour)	EC50 (Pristionchus pacificus)	% effect (motility), DIROIM MF ([1]; 0.016 µM)	% effect (motility), DIROIM MF ([1]; 0.08 µM)	% effect (motility), DIROIM MF ([1]; 0.4 µM)	% effect (motility), DIROIM MF ([1]; 2 µM)	% effect (motility), DIROIM MF ([1]; 10 µM)	% effect (motility), DIROIM L4 ([2]; 2 µM)	% effect (motility), DIROIM L4 ([2]; 10 µM)	% effect (motility), DIROIM L4 ([2]; 50 µM)	EC50 (C. elegans; [8])	further results
O=C(C1CCC1)N1CCN(c2ccc(F)cc2)CC1 [Nemacol-18]	0%	10%	27.5%	3.333%	3.333%	15.8333%	> 60 µM	0%	0%	0%	0%	0%	5%	0%	10%		EC50 (C. elegans; 1 h): > 60 µM; rep 1 atypical locomotion (Pristionchus pacificus; [7]): 0; rep 1 coiled (Pristionchus pacificus; [7]): 0; rep 1 no phene (Pristionchus pacificus; [7]): 20; rep 1 paralyzed (Pristionchus pacificus; [7]): 0; rep 2 atypical locomotion (Pristionchus pacificus; [7]): 0; rep 2 coiled (Pristionchus pacificus; [7]): 0; rep 2 no phene (Pristionchus pacificus; [7]): 20; rep 2 paralyzed (Pristionchus pacificus; [7]): 0; rep 3 atypical locomotion (Pristionchus pacificus; [7]): 0; rep 3 coiled (Pristionchus pacificus; [7]): 0; rep 3 no phene (Pristionchus pacificus; [7]): 19; rep 3 paralyzed (Pristionchus pacificus; [7]): 1
O=[N+]([O-])c1ccc(N2CCN(C3CCCCCCC3)CC2)cc1 [Nemacol-21]	3.333%	17.5%		0.8333%	6.667%	50%	60 ± 10.2 µM	0%	0%	0%	0%	0%		0%	0%	19.6 ± 37.4 µM	
Cc1cc([N+](=O)[O-])ccc1N1CCN(CC2CCCCC2)CC1 [Nemacol-23, 1-(cyclohexylmethyl)−4-(2-methyl-4-nitrophenyl)piperazine]	15.8333%	33.3333%	63.3333%	1.667%	0.8333%	7.5%	> 60 µM	0%	0%	0%	0%	0%	0%	5%	100%	32.1 ± 48.2 µM	
Cc1cc(N2CCN(CC3CCCCC3)CC2)ccc1[N+](=O)[O-] [Nemacol-25, 1-(cyclohexylmethyl)−4-(3-methyl-4-nitrophenyl)piperazine]	2.5%	20.8333%	62.5%	0.8333%	6.667%	29.1667%	> 60 µM	0%	0%	0%	40%	60%	0%	11%	100%	41 ± 26.8 µM	EC50 ([1]; Dirofilaria immitis, 72 h, read-out: Dirofilaria immitis filariae EC50): 5.11 µM
